Measured values as given in patent US9403874B2, “Peptides and use thereof” (IL YANG PHARM. CO.,LTD., priority 2012, dated 2016).

Assays:
Type in all cases: cell-based
Details in all cases: 100 ng/me of peptide; EBV-infected B cells stimulated with anti-CD150; ELISA of culture supernatant
IL-5 = assay: Reduction of IL-5 secretion in activated B cells (ELISA)
Description: (§1) In order to determine the activity of the novel peptides synthesized in Example 1 for reducing the secretion of inflammatory cytokines, the activated pathogenic B cells were treated with each of the 18 types of synthesized novel peptides and the reduction in secretion of inflammatory cytokines from the B cells was monitored.
(§2) Specifically, in order to determine whether the novel peptides could weaken the pathogenic B cells which are involved in the development of disease symptoms, the in vitro B cells model which is similar to the joint infiltrative B cells of rheumatoid arthritis was used. The activated pathogenic B cell was generated by stimulating Ebstein Barr virus (EBV)-infected B cells with anti-CD150 antibodies, and the cells were treated with […] of each of the 18 types of novel peptide.
(§3) In order to confirm the effect of 18 types of novel peptides in reducing inflammatory cytokines, the secretion amount of various cytokines (IL-1A, IL-1B, IL-2, IL-4, IL-5, IL-6, IL-8, IL-10, IL-12A, IL-13, IL-17A, GM-CSF, IL-34) secreted from the activated B cells was measured. The supernatants of B cell culture were analyzed enzyme-linked immunosorbent assay (ELISA), and the difference in absorbance (450 nm-570 nm) of the color developing reagent was measured as test results. Based on the measured difference in absorbance (450 nm-570 nm) of the color developing reagent, the absorbance of cytokines secreted when treated with the 18 types of novel […] was calculated in percentage, while setting the absorbance corresponding to the cytokines secreted from the activated B cells stimulated by anti-CD150 as 100%.

IL-4 = assay: Reduction of IL-4 secretion in activated B cells (ELISA)
Description: as §1, §2, §3

IL-2 = assay: Reduction of IL-2 secretion in activated B cells (ELISA)
Description: as §1, §2, §3

IL-6 = assay: Reduction of IL-6 secretion in activated B cells (ELISA)
Description: as §1, §2, §3

IL-13 = assay: Reduction of IL-13 secretion in activated B cells (ELISA)
Description: as §1, §2, §3

IL-34 = assay: Reduction of IL-34 secretion in activated B cells (ELISA)
Description: as §1, §2, §3

IL-12A = assay: Reduction of IL-12A secretion in activated B cells (ELISA)
Description: as §1, §2, §3

IL-1B = assay: Reduction of IL-1B secretion in activated B cells (ELISA)
Description: as §1, §2, §3

GM-CSF = assay: Reduction of GM-CSF secretion in activated B cells (ELISA)
Description: as §1, §2, §3

IL-8 = assay: Reduction of IL-8 secretion in activated B cells (ELISA)
Description: as §1, §2, §3

IL-10 = assay: Reduction of IL-10 secretion in activated B cells (ELISA)
Description: as §1, §2, §3

IL-1A = assay: Reduction of IL-1A secretion in activated B cells (ELISA)
Description: as §1, §2, §3

IL-17A = assay: Reduction of IL-17A secretion in activated B cells (ELISA)
Description: as §1, §2, §3

RDGRT (SIS-1#16 peptide)
Inhibition rate of each cytokine compared to CD150-stimulated EBV-t B cells (%) IL-5 (IL-5): 20.3%
Inhibition rate of each cytokine compared to CD150-stimulated EBV-t B cells (%) IL-4 (IL-4): 23.9%
Inhibition rate of each cytokine compared to CD150-stimulated EBV-t B cells (%) IL-2 (IL-2): 15.4%
Inhibition rate of each cytokine compared to CD150-stimulated EBV-t B cells (%) IL-6 (IL-6): 22.8%
Inhibition rate of each cytokine compared to CD150-stimulated EBV-t B cells (%) IL-13 (IL-13): 24.5%
Inhibition rate of each cytokine compared to CD150-stimulated EBV-t B cells (%) IL-34 (IL-34): 23.1%
Inhibition rate of each cytokine compared to CD150-stimulated EBV-t B cells (%) IL-12A (IL-12A): 29.8%
Inhibition rate of each cytokine compared to CD150-stimulated EBV-t B cells (%) IL-1B (IL-1B): 17.0%
Inhibition rate of each cytokine compared to CD150-stimulated EBV-t B cells (%) GM-CSF (GM-CSF): 6.2%
Inhibition rate of each cytokine compared to CD150-stimulated EBV-t B cells (%) IL-8 (IL-8): 33.0%
Inhibition rate of each cytokine compared to CD150-stimulated EBV-t B cells (%) IL-10 (IL-10): 31.2%
Inhibition rate of each cytokine compared to CD150-stimulated EBV-t B cells (%) IL-1A (IL-1A): 16.2%
Inhibition rate of each cytokine compared to CD150-stimulated EBV-t B cells (%) IL-17A (IL-17A): 32.8%

RDGRTD (SIS-1#17 peptide)
Inhibition rate of each cytokine compared to CD150-stimulated EBV-t B cells (%) IL-5 (IL-5): 14.0%
Inhibition rate of each cytokine compared to CD150-stimulated EBV-t B cells (%) IL-4 (IL-4): 32.0%
Inhibition rate of each cytokine compared to CD150-stimulated EBV-t B cells (%) IL-2 (IL-2): 17.0%
Inhibition rate of each cytokine compared to CD150-stimulated EBV-t B cells (%) IL-6 (IL-6): 16.8%
Inhibition rate of each cytokine compared to CD150-stimulated EBV-t B cells (%) IL-13 (IL-13): 14.8%
Inhibition rate of each cytokine compared to CD150-stimulated EBV-t B cells (%) IL-34 (IL-34): 20.8%
Inhibition rate of each cytokine compared to CD150-stimulated EBV-t B cells (%) IL-12A (IL-12A): 16.0%
Inhibition rate of each cytokine compared to CD150-stimulated EBV-t B cells (%) IL-1B (IL-1B): 20.5%
Inhibition rate of each cytokine compared to CD150-stimulated EBV-t B cells (%) GM-CSF (GM-CSF): 14.8%
Inhibition rate of each cytokine compared to CD150-stimulated EBV-t B cells (%) IL-8 (IL-8): 22.0%
Inhibition rate of each cytokine compared to CD150-stimulated EBV-t B cells (%) IL-10 (IL-10): 15.8%
Inhibition rate of each cytokine compared to CD150-stimulated EBV-t B cells (%) IL-1A (IL-1A): 18.8%
Inhibition rate of each cytokine compared to CD150-stimulated EBV-t B cells (%) IL-17A (IL-17A): 23.8%

RDGRTDG (SIS-1#2 peptide)
Inhibition rate of each cytokine compared to CD150-stimulated EBV-t B cells (%) IL-5 (IL-5): 25.4%
Inhibition rate of each cytokine compared to CD150-stimulated EBV-t B cells (%) IL-4 (IL-4): 23.8%
Inhibition rate of each cytokine compared to CD150-stimulated EBV-t B cells (%) IL-2 (IL-2): 15.1%
Inhibition rate of each cytokine compared to CD150-stimulated EBV-t B cells (%) IL-6 (IL-6): 29.8%
Inhibition rate of each cytokine compared to CD150-stimulated EBV-t B cells (%) IL-13 (IL-13): 23.8%
Inhibition rate of each cytokine compared to CD150-stimulated EBV-t B cells (%) IL-34 (IL-34): 25.4%
Inhibition rate of each cytokine compared to CD150-stimulated EBV-t B cells (%) IL-12A (IL-12A): 30.1%
Inhibition rate of each cytokine compared to CD150-stimulated EBV-t B cells (%) IL-1B (IL-1B): 18.2%
Inhibition rate of each cytokine compared to CD150-stimulated EBV-t B cells (%) GM-CSF (GM-CSF): 19.0%
Inhibition rate of each cytokine compared to CD150-stimulated EBV-t B cells (%) IL-8 (IL-8): 25.2%
Inhibition rate of each cytokine compared to CD150-stimulated EBV-t B cells (%) IL-10 (IL-10): 19.8%
Inhibition rate of each cytokine compared to CD150-stimulated EBV-t B cells (%) IL-1A (IL-1A): 23.8%
Inhibition rate of each cytokine compared to CD150-stimulated EBV-t B cells (%) IL-17A (IL-17A): 39.8%

RDGRTDGRTD (SIS-1#8 peptide)
Inhibition rate of each cytokine compared to CD150-stimulated EBV-t B cells (%) IL-5 (IL-5): 12.0%
Inhibition rate of each cytokine compared to CD150-stimulated EBV-t B cells (%) IL-4 (IL-4): 18.9%
Inhibition rate of each cytokine compared to CD150-stimulated EBV-t B cells (%) IL-2 (IL-2): 33.0%
Inhibition rate of each cytokine compared to CD150-stimulated EBV-t B cells (%) IL-6 (IL-6): 23.8%
Inhibition rate of each cytokine compared to CD150-stimulated EBV-t B cells (%) IL-13 (IL-13): 33.5%
Inhibition rate of each cytokine compared to CD150-stimulated EBV-t B cells (%) IL-34 (IL-34): 19.8%
Inhibition rate of each cytokine compared to CD150-stimulated EBV-t B cells (%) IL-12A (IL-12A): 19.2%
Inhibition rate of each cytokine compared to CD150-stimulated EBV-t B cells (%) IL-1B (IL-1B): 25.9%
Inhibition rate of each cytokine compared to CD150-stimulated EBV-t B cells (%) GM-CSF (GM-CSF): 19.8%
Inhibition rate of each cytokine compared to CD150-stimulated EBV-t B cells (%) IL-8 (IL-8): 29.2%
Inhibition rate of each cytokine compared to CD150-stimulated EBV-t B cells (%) IL-10 (IL-10): 10.0%
Inhibition rate of each cytokine compared to CD150-stimulated EBV-t B cells (%) IL-1A (IL-1A): 30.2%
Inhibition rate of each cytokine compared to CD150-stimulated EBV-t B cells (%) IL-17A (IL-17A): 30.1%

RTDCTR (SIS-1#3 peptide)
Inhibition rate of each cytokine compared to CD150-stimulated EBV-t B cells (%) IL-5 (IL-5): 17.4%
Inhibition rate of each cytokine compared to CD150-stimulated EBV-t B cells (%) IL-4 (IL-4): 13.2%
Inhibition rate of each cytokine compared to CD150-stimulated EBV-t B cells (%) IL-2 (IL-2): 12.3%
Inhibition rate of each cytokine compared to CD150-stimulated EBV-t B cells (%) IL-6 (IL-6): 18.2%
Inhibition rate of each cytokine compared to CD150-stimulated EBV-t B cells (%) IL-13 (IL-13): 10.2%
Inhibition rate of each cytokine compared to CD150-stimulated EBV-t B cells (%) IL-34 (IL-34): 9.8%
Inhibition rate of each cytokine compared to CD150-stimulated EBV-t B cells (%) IL-12A (IL-12A): 19.4%
Inhibition rate of each cytokine compared to CD150-stimulated EBV-t B cells (%) IL-1B (IL-1B): 20.0%
Inhibition rate of each cytokine compared to CD150-stimulated EBV-t B cells (%) GM-CSF (GM-CSF): 7.2%
Inhibition rate of each cytokine compared to CD150-stimulated EBV-t B cells (%) IL-8 (IL-8): 19.2%
Inhibition rate of each cytokine compared to CD150-stimulated EBV-t B cells (%) IL-10 (IL-10): 25.2%
Inhibition rate of each cytokine compared to CD150-stimulated EBV-t B cells (%) IL-1A (IL-1A): 14.0%
Inhibition rate of each cytokine compared to CD150-stimulated EBV-t B cells (%) IL-17A (IL-17A): 11.0%

RTDG (SIS-1#7 peptide)
Inhibition rate of each cytokine compared to CD150-stimulated EBV-t B cells (%) IL-5 (IL-5): 3.5%
Inhibition rate of each cytokine compared to CD150-stimulated EBV-t B cells (%) IL-4 (IL-4): 10.2%
Inhibition rate of each cytokine compared to CD150-stimulated EBV-t B cells (%) IL-2 (IL-2): 7.4%
Inhibition rate of each cytokine compared to CD150-stimulated EBV-t B cells (%) IL-6 (IL-6): 11.8%
Inhibition rate of each cytokine compared to CD150-stimulated EBV-t B cells (%) IL-13 (IL-13): 3.6%
Inhibition rate of each cytokine compared to CD150-stimulated EBV-t B cells (%) IL-34 (IL-34): 2.9%
Inhibition rate of each cytokine compared to CD150-stimulated EBV-t B cells (%) IL-12A (IL-12A): 11.4%
Inhibition rate of each cytokine compared to CD150-stimulated EBV-t B cells (%) IL-1B (IL-1B): 5.3%
Inhibition rate of each cytokine compared to CD150-stimulated EBV-t B cells (%) GM-CSF (GM-CSF): 4.5%
Inhibition rate of each cytokine compared to CD150-stimulated EBV-t B cells (%) IL-8 (IL-8): 3.2%
Inhibition rate of each cytokine compared to CD150-stimulated EBV-t B cells (%) IL-10 (IL-10): 5.3%
Inhibition rate of each cytokine compared to CD150-stimulated EBV-t B cells (%) IL-1A (IL-1A): 6.3%
Inhibition rate of each cytokine compared to CD150-stimulated EBV-t B cells (%) IL-17A (IL-17A): 9.5%

TDG (SIS-1#11 peptide)
Inhibition rate of each cytokine compared to CD150-stimulated EBV-t B cells (%) IL-5 (IL-5): 10.8%
Inhibition rate of each cytokine compared to CD150-stimulated EBV-t B cells (%) IL-4 (IL-4): 19.5%
Inhibition rate of each cytokine compared to CD150-stimulated EBV-t B cells (%) IL-2 (IL-2): 3.2%
Inhibition rate of each cytokine compared to CD150-stimulated EBV-t B cells (%) IL-6 (IL-6): 8.1%
Inhibition rate of each cytokine compared to CD150-stimulated EBV-t B cells (%) IL-13 (IL-13): 5.9%
Inhibition rate of each cytokine compared to CD150-stimulated EBV-t B cells (%) IL-34 (IL-34): 7.2%
Inhibition rate of each cytokine compared to CD150-stimulated EBV-t B cells (%) IL-12A (IL-12A): 6.8%
Inhibition rate of each cytokine compared to CD150-stimulated EBV-t B cells (%) IL-1B (IL-1B): 2.7%
Inhibition rate of each cytokine compared to CD150-stimulated EBV-t B cells (%) GM-CSF (GM-CSF): 4.2%
Inhibition rate of each cytokine compared to CD150-stimulated EBV-t B cells (%) IL-8 (IL-8): 4.2%
Inhibition rate of each cytokine compared to CD150-stimulated EBV-t B cells (%) IL-10 (IL-10): 4.2%
Inhibition rate of each cytokine compared to CD150-stimulated EBV-t B cells (%) IL-1A (IL-1A): 6.0%
Inhibition rate of each cytokine compared to CD150-stimulated EBV-t B cells (%) IL-17A (IL-17A): 6.3%
